Data set [1] can be described thus: Solubility of ITE in conventional solvents. The class given is physicochemical. From the text:
2-(1H-Indol-3-ylcarbonyl)-4-thiazolecarboxylic acid methyl ester (ITE) is a potent aryl hydrocarbon receptor agonist which is difficult to formulate in nanoparticulate form (including gold and PLGA nanoparticles and many conventional liposomal compositions, for example). […] ITE is also highly prone to self-aggregation.

In another data set the test system is EAE. The note with it: cited from earlier work.
The format of data set [2] is physicochemical. The procedure:
A stability assessment was performed in which liposomes from batch 1 were stored in HBS for one month at 4° C. and re-assayed.
• Lipid ratios were varied in the following range for each lipid: • Egg PC or HEPC: ˜53-72 mol % • Cholesterol: ˜25-44 mol % • PEG2000-PE: 1.5 to 6.25 mol % ITE was fixed at 0.5% by weight to the total lipid mass for all the batches tested. ITE was added from a DMSO stock. Batches were observed daily for any signs of precipitation/aggregation

Another data set relates to splenocytes of 2D2 mice. Kind of data set: Proliferation of 2D2 splenocytes stimulated in vitro (Cell Titer Blue). The note with it: 10 μg MOG; 1 μg ITE; 72 hours at 37° C. It counts as cell-based. As to the method: Splenocytes were harvested from 2D2 mice, which express a transgenic 2D2 T cell […] (TCR) specific for MOG35-55 and stimulated in vitro with 10 μg of MOG delivered either freely (Free MOG), loaded in egg-PC liposomes alone (MOG-L) or loaded in egg-PC liposomes and additionally stimulated with ITE-loaded egg-PC liposomes (at a dose of 1 μg ITE). Cell proliferation was assessed after incubation at 37° C. for 72 hours using a Cell Titer Blue cell proliferation assay.
For orientation: Resazurin is reduced to fluorescent resorufin, in cell work by metabolically active cells.

In brackets after ≈: the same amount, converted by molar mass. Like-named read-outs stand apart in the source and are kept apart here.

Regarding `COC(=O)c1csc(C(=O)c2c[nH]c3ccccc23)n1` [ITE, 2-(1H-Indol-3-ylcarbonyl)-4-thiazolecarboxylic acid methyl ester], the solubility (in general, how much of the substance goes into solution per volume) in data set [1] (ethanol, organic solvent or mixture) was approximately 3300 µM (≈ 945 µg/mL); in data set [1] (methanol, organic solvent or mixture), approximately 3000 µM (≈ 859 µg/mL); in data set [1] (water) it was approximately 115 µM (≈ 32.9 µg/mL). In addition, the EAE amelioration entry in the data set on EAE (daily 200 μg per mouse, i.p. or orally, Quintana et al. PNAS 2010) is recorded as “ameliorated”.
On to `Clc1cc2c(cc1Cl)Oc1cc(Cl)c(Cl)cc1O2` [TCDD, 2,3,7,8-tetrachlorodibenzo-p-dioxin], for which the “potency relative to ITE in most in vivo studies” value in the data set with EAE (TCDD vs ITE) is reported as ~1,000 fold. For the same compound, the EAE amelioration result is reported as “not” in the data set with EAE (dose of 100 ng, Quintana et al. Nature 2008) and “ameliorated EAE” in the data set with EAE (dose of 1 μg, Quintana et al. Nature 2008).
Consider DMPC, for which the “stability (observation)” value in data set [2] is recorded as “in liposome, not stable”.
For “Free MOG: MOG35-55 peptide MEVGWYRSPFSRVVHLYRNGK (SEQ ID NO: 82) delivered freely”, the 2D2 cell proliferation entry with splenocytes of 2D2 mice was “induced 2D2 cell proliferation”.

These data come from US12178908B2, “Tolerogenic liposomes and methods of use thereof” (AnTolRx, Inc., priority 2018, dated 2024).
